Laboratory results as given in PMC4501687, “Design of a Selective Substrate and Activity Based Probe for Human Neutrophil Serine Protease 4” (PLoS ONE, 2015).

Columns and labels:
[1] = target: T1, NE (Homo sapiens, UniProt P08246); assay: SDS-PAGE / streptavidin blot labeling of NE by probe; format: binding; settings: 100 nM active enzyme, 100 nM PK401; streptavidin blot (Fig 4B)
T1 construct: purchased Biocentrum, Krakow, Poland
T1 sequence (P08246 30-267): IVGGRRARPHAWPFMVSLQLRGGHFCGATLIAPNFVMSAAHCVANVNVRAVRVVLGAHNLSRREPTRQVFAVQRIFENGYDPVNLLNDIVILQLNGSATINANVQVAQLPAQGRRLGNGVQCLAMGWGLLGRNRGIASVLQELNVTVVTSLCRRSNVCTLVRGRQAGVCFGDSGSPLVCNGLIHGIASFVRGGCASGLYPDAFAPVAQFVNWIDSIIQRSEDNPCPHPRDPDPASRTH
Method: (§1) Samples were denatured and run in 4–12% SDS PAGE following transfer to nitrocellulose membrane. The membrane was blocked with 1.5% BSA in TBST overnight at 4°C and treated with IRDye800CW Streptavidin (dilution 1:10000 with 1.5% BSA in TBST) for 45 minutes. Then enzyme was visualized using a Li-cor fluorescence imager and Odyssey Molecular Modeling Software.
(§2) The same methodology was used to visualize potential cross-reactivity of NSP’s with PK401. 100nM of each NSP was incubated with buffer or 100nM PK401, followed by SDS-page and transfer to nitrocellulose membrane. For more details see S1 Text.
(§3) SDS-page and Western Blot […]
(§4) A standard SDS broad spectrum marker (Biorad) was used (Fig. 4A, lane 1).
(§5) Two Eppendorf tubes with 100nM of NSP4 were incubated with Ac-IVPR-CMK for 30 minutes at 37°C and then treated with PK401 at 2000nM and 1000nM for an additional 20 minutes at 37° C (Fig. 4, lanes 2 and 3). Separately, 100nM enzyme […]
(§6) minutes in 37° C (Fig. 4, lanes 4, 5, 6, 7, 8). […] Then enzyme was visualized using a Li-cor fluorescence imager and Odyssey Molecular Modeling Software. […]
(§7) The membrane was blocked with 1.5% BSA in TBST overnight at 4° C and treated with IRDye800CW Streptavidin (dilution 1:10000 with 1,5% BSA in TBST) for 45 minutes. Then PK401 was visualized using a Li-cor fluorescence imager and Odyssey Molecular Modeling Software.

[2] = target: T2, NSP4 (Homo sapiens, UniProt Q6UWY2); assay: Inhibition rate constant (kobs/I), pseudo-first order, NSP4; format: biochemical
T2 construct: made in house
T2 sequence (Q6UWY2 32-283): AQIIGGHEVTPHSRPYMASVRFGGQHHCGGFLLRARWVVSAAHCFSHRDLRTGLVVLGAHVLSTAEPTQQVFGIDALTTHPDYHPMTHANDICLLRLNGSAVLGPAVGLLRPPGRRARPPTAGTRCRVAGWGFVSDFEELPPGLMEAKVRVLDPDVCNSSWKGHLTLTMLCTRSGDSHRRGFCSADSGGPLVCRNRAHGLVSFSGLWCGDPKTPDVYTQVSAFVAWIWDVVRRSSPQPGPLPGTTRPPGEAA
Method: (§8) The active concentration of each NSP was determined by PK401 titration in 50 mM Hepes, 0.1 M NaCl, 0.1%TRITON-X100, pH 7.45 assay buffer on 96 wells Corning plates. Rfu/s values were measured for minimum 20 minutes. The excitation wavelength was 355 nm, and the emission wavelength was 460 nm, with a cutoff of 455 nm. Under pseudo-first order conditions, a fixed amount of NSP4 (2.8 nM active enzyme), PR3, NE, or CatG (100 nM active enzyme) was mixed with PK401 at different concentration ranges starting from at least 2-fold excess over NSP4 (6.6–20nM) and 7-fold excess over NE, CatG and PR3 (0.7–50μM). […] Product formation (P) proceeded at an initial velocity (V) and was inhibited over time (t) at a rate of (k a): P = V/ka*(1-e^-ka^*t)+C, where k o is defined as k obs(app) −the apparent rate of inhibition in the presence of substrate. k obs was determined separately for each probe concentration using non-linear regression analysis in GraphPadPrism software. The obtained values were plotted against probe concentration giving k obs(app)/I (apparent second order rate constant). kobs/I (absolute value of the second order rate constant) was then calculated from kobs/I = ka/I *(1+[S]/Km). […]

[3] = target: T3, CatG (Homo sapiens, UniProt P08311); assay: SDS-PAGE / streptavidin blot labeling of CatG by probe; format: binding; settings: 100 nM active enzyme, 100 nM PK401; streptavidin blot (Fig 4B)
T3 construct: purchased Biocentrum, Krakow, Poland
T3 sequence (P08311 21-255): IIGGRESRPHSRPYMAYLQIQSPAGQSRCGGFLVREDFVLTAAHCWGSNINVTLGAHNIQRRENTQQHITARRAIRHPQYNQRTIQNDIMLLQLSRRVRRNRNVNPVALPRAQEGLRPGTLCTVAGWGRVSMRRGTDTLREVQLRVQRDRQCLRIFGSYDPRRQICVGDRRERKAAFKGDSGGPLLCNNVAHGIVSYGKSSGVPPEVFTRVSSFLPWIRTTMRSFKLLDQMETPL
Method: as §1, §2, §3, §4, §5, §6, §7

[4] = target: T3, CatG; assay: Inhibition rate constant (kobs/I), pseudo-first order, CatG; format: biochemical; settings: selectivity NSP4 over CatG
Method: as §8

[5] = target: T2, NSP4; assay: SDS-PAGE / streptavidin blot labeling of purified NSP4 by probe; format: binding; settings: 100 nM NSP4, 20 min 37°C; SDS-PAGE, nitrocellulose transfer, fluorescent streptavidin; probe tested 1–2000 nM
Method: 100nM of NSP4 was incubated with competing inhibitor—Ac-IVPR-CMK for 30 minutes at 37°C and then treated with different concentrations of probe—PK401 (2000nM and 1000nM) for 20 minutes at 37°C. Separately, 100nM of NSP4 was incubated with five different concentrations of probe- 2000nM, 1000nM, 100nM, 10nM, and 1 nM for 20 minutes in 37°C. As a control 100nM PK401 was incubated with assay buffer.
as §1, §3
A standard SDS broad spectrum marker (Biorad) was used (Fig. 4A, lane 1). […]
as §6, §7

[6] = target: T3, CatG; assay: Fluorogenic substrate hydrolysis kinetics with CatG; format: biochemical; settings: Table 3; assay substrate for CatG; Km above 100 μM, the concentration used in the assay; read-out: Km of the substrate used for analysis
Method: Kinetic parameters of selected substrates were determined in 50 mM Hepes, 0.1 M NaCl, 0.1%TRITON-X100, pH 7.45 assay buffer on 96 wells Corning plates. Measurements were performed for a minimum of 20 minutes. The excitation wavelength was 355 nm, and the emission wavelength was 460 nm, with a cutoff of 455 nm. Human NE and CatG were purchased from Biocentrum, Krakow, Poland and PR3 from Athens Research Technology, Athens, Georgia, USA. Recombinant human NSP4 was expressed and purified as previously described.
In addition to NSP4, neutrophils contain three other structurally-related serine proteases NE, PR3 and CatG [1] that are also stored in azurophilic granules. To estimate the degree of eventual cross reactivity of the optimal substrate with these three serine proteases, we measured kinetic parameters for each enzyme on PK421. […] In the case of CatG we were unable to saturate the enzyme and therefore could not calculate the individual values of kcat and Km.

Row | Substance | Labeling of NE by probe [1] | kobs/I (second order rate constant of inhibition) ([2]; NSP4 2.8 nM active enzyme, probe 6.6–20 nM, substrate Ac-hCha-Phe(guan)-Pro-Arg-ACC above Km, 37°C, Hepes buffer pH 7.45, corrected by 1+[S]/Km) [M⁻¹ s⁻¹] | Fold higher kobs/I than PK401b ([2]; NSP4, diastereoisomers compared) [times] | Labeling of CatG by probe [3] | Inhibition of CatG relative to NSP4 (kobs/I) [4] | Probe concentration giving robust labeling of NSP4 [5] [nM] | Km [6] [µM]
1 | Biot-Ahx-hCha-Phe(guan)-Oic-Arg^P(OPh)2 [PK401] | only trace amounts of labeling | 3.8e+06 | 40 | only trace amounts of labeling | three orders of magnitude slower | 10 | 
2 | Suc-Ala-Ala-Pro-Phe-AMC [assay substrate for CatG] |  |  |  |  |  |  | > 100
